What was measured:
EMT6-Luc2 tumors = experiment: Tumor uptake in EMT6-Luc2 tumor-bearing mice; type: in vivo, mouse; settings: untreated, 24 h p.i., ±SEM
Protocol: The quadruple modality imaging procedure is illustrated in Figure S21. The tumor-bearing mice were injected with [^111In]3 (20 MBq, 2 nmol) in 200 µL PBS into the tail vein. The following day, the mice fasted for four hours before they were injected with [^18F]FDG (10 MBq, 200 µL) in PBS. At 24 h p.i. of [^111In]3 and 1 h p.i. of [^18F]FDG, FLI imaging was performed with a 730 nm excitation and 760 nm emission filter for 400 ms with 4 × 4 binning. Then, the mice received an intraperitoneal injection of D-luciferin (150 mg/kg) maintaining the position of the mice in the bed unaltered. During the onset of the bioluminescence signal, PET/SPECT imaging was performed of the tumors with a 2 cm axial field of view over a total scan time of 30 min, followed by a 2 min full-body CT. Finally, BLI imaging was performed with an open filter for 400 ms with 4 × 4 binning. Imaging was performed under isoflurane anesthesia whilst maintaining the body temperature constant. […]
After the final imaging experiments, the mice were sacrificed by cervical dislocation, tumors and organs were collected, weighted, and activity was accurately quantified by γ-counting to determine radioactivity uptake in the percentage of injected dose per gram (%ID/g). […] The sections were stored at −20 °C for the radioactivity to decay, before 800 nm fluorescence imaging and histochemical dead cell staining.

[1] = In vivo stability (radio-HPLC of urine 1 h after injection); set-up: species or system mouse; settings: mice, i.v., 1 h p.i.
Description: After an hour, the mice were sacrificed by cervical dislocation and blood and urine were collected, which were frozen in liquid nitrogen directly after extraction. […] The supernatant was collected and analyzed by radio-HPLC (Method-D).

4T1-Luc2 tumors = experiment: SPECT/CT tumor necrosis imaging, quantified tumor uptake; type: in vivo, mouse; settings: 4T1-Luc2 tumor-bearing mice, 24 h p.i.
Protocol: The 4T1-Luc2 cells (1.0 × 10^5) suspended in 15 µL PBS were inoculated bilaterally in 16 mice in four groups of four animals each. Nine days later, the tumor-bearing mice were injected with [^111In]3 (20 MBq, 2 nmol, in 200 µL PBS) into the tail vein, after which imaging was performed at timepoints 6, 24, 48, and 72 h post-injection (p.i.) under isoflurane anesthesia (4% induction, 1.5 to 2% maintenance in 100% O2), whilst maintaining the body temperature constant. First, FLI imaging was performed with a 730 nm excitation and 760 nm emission filter for 400 ms with 4 × 4 binning. Then, the mice received an intraperitoneal injection of D-luciferin (150 mg/kg) maintaining the position of the mice in the bed unaltered, and BLI imaging was performed with an open filter for 400 ms with 4 × 4 binning. Full body (head to tail base) SPECT images of the 5 cm axial field of view were obtained over a total scan time of 30 min, followed by a 2 min full-body CT. After imaging, the mice were euthanized for ex vivo analysis.
Acquired SPECT and PET images were reconstructed using SR-OSEM with 9 iterations and 128 subsets on a 36 × 36 × 35 mm matrix with 0.80 mm isotropic voxels. For the PET images, a decay correction of 109.7 min was applied. The PET and SPECT images were superposed with CT. The images were further analyzed in Pi-Mod. […]

4T1-Luc2 cells = experiment: In vitro dead/alive cell binding assay (fluorescence and γ-counting); type: cell-based, mouse; settings: indium-111 labeled, 100 nM, 2.5 MBq/nmol, EtOH-killed or alive 4T1-Luc2 cells, γ-counting
Protocol: The 4T1-Luc2 cells were cultured in RPMI-1640 medium containing 10% fetal bovine, penicillin (100 U/mL), and streptomycin ([…]) 37 °C under a humidified atmosphere with 5% CO2. The cells were seeded in 24 well plates (1 × 10^5 cells per well). The next day, the cells were killed with EtOH (70%, 50 μL) or kept alive and incubated for 30 min at 37 °C with 100 nM of the NACAs in culturing medium. The plate was then imaged on an Odyssey (Li-Cor, 800 nm laser intensity 5.0).
Similarly, these killed and alive cells were incubated with the indium-111 labeled NACAs (100 nM, 2.5 MBq/nmol) in culturing medium. The cells were washed with PBS and collected with NaOH (1.0 M) for γ-counting. These experiments were performed as triplicates.

MCF7-Luc2 tumors = experiment: Tumor uptake in doxorubicin- or saline-treated MCF7-Luc2 tumor-bearing mice; type: in vivo, mouse; settings: 24 h p.i., ±SEM
Protocol: The quadruple modality imaging procedure is illustrated in Figure S21. The tumor-bearing mice were injected with [^111In]3 (20 MBq, 2 nmol) in 200 µL PBS into the tail vein. The following day, the mice fasted for four hours before they were injected with [^18F]FDG (10 MBq, 200 µL) in PBS. At 24 h p.i. of [^111In]3 and 1 h p.i. of [^18F]FDG, FLI imaging was performed with a 730 nm excitation and 760 nm emission filter for 400 ms with 4 × 4 binning. Then, the mice received an intraperitoneal injection of D-luciferin (150 mg/kg) maintaining the position of the mice in the bed unaltered. During the onset of the bioluminescence signal, PET/SPECT imaging was performed of the tumors with a 2 cm axial field of view over a total scan time of 30 min, followed by a 2 min full-body CT. Finally, BLI imaging was performed with an open filter for 400 ms with 4 × 4 binning. Imaging was performed under isoflurane anesthesia whilst maintaining the body temperature constant.
Six mice were inoculated bilaterally with MCF7-Luc2 cells (3.0 × 10^6), suspended in 30 µL PBS:Matrigel (1:1; v/v). On days 14, 16, and 18 after inoculation, the tumor-bearing mice received either doxorubicin (5 mg/kg, Janssen Pharmaceuticals, Beerse, Belgium) or a saline solution via i.v. injection. On days 21 and 22 after inoculation, the mice underwent the FLI, BLI, and PET/SPECT/CT imaging procedure (vide supra).
After the final imaging experiments, the mice were sacrificed by cervical dislocation, tumors and organs were collected, weighted, and activity was accurately quantified by γ-counting to determine radioactivity uptake in the percentage of injected dose per gram (%ID/g). After γ-counting, the tumors were frozen in liquid nitrogen and stored at −80 °C overnight. Adjacent cryosections (10 µm) were prepared of the tumor centers for autoradiography. The sections were stored at −20 °C for the radioactivity to decay, before 800 nm fluorescence imaging and histochemical dead cell staining.

Structure (SMILES): CC1(C)C(=CC=C2CCCC(C=CC3=[N+](CCCCCC(=O)NCCCC[C@H](NC(=O)CCCc4ccc(I)cc4)C(=O)NCc4ccc(CNC(=O)CN5CCN(CC(=O)[O-])CCN(CC(=O)[O-])CCN(CC(=O)[O-])CC5)cc4)c4ccc(S(=O)(=O)O)cc4C3(C)C)=C2Oc2ccc(S(=O)(=O)O)cc2)N(CCCCS(=O)(=O)O)c2ccc(S(=O)(=O)O)cc21.[111In+3] [[^111In]3]
- tumor uptake of [111In]3 (EMT6-Luc2 tumors): 2.81 ± 0.21 %ID/g
- in vivo stability, remained stable [1]: > 95%
- radioactive tumor uptake in the SPECT images (4T1-Luc2 tumors): 3.83 ± 0.19 %ID/mL
- dead/alive cell binding, radioactivity (4T1-Luc2 cells): increased as compared to [^111In]1
- tumor uptake of [111In]3 (MCF7-Luc2 tumors; after doxorubicin treatment (5 mg/kg i.v., 3 injections)): 2.25 ± 0.16 %ID/g
- tumor uptake of [111In]3 (MCF7-Luc2 tumors; after saline treatment (control)): 1.74 ± 0.08 %ID/g

Source: PMC8870237, “Improved Multimodal Tumor Necrosis Imaging with IRDye800CW-DOTA Conjugated to an Albumin-Binding Domain” (Cancers, 2022)
